Our source for the IC50 values is patent US7728146B2, “Enzyme inhibitors” (Probiodrug AG, priority 2006, dated 2010).

Each structure is given as a SMILES string.

The first test addresses DP IV (Homo sapiens, UniProt P27487). The experiment in a line: DP IV inhibition IC50, parallel-synthesis compounds tested directly following synthesis (without purification). Also noted: IC50 DP4; other: tested directly following parallel synthesis, without purification; compounds of formula (Ib) from parallel synthesis, tested directly following synthesis. The format is biochemical. As to conditions: DP IV inhibition; compounds of formula (Ib) from parallel synthesis, tested directly following synthesis (without purification); read-out: IC50. On the procedure:
Compounds were immediately tested regarding their activity as DP IV inhibitors.
Substances are screened for inhibition of dipeptidyl peptidase (DP IV) by their ability to inhibit the hydrolysis of the DP IV specific substrate Glycyl-Prolyl-4-Nitroanilide (Gly-Pro-pNA). All compounds are diluted in DMSO and IC50 will be determined with 11 serial dilutions (1:2) starting with an final concentration of 100 μM. The final DMSO concentration in the assay is 5% (v/v). The method was automated using a Tecan Genesis Freedom liquid handler and a Genius Pro (Tecan) microplate reader.
DP IV from porcine kidney (pDP IV) or recombinant human DP IV (rhDP IV) is diluted in HEPES buffer to a final activity of approximately 40-50 μU*ml^−1. The DP IV is stored in a cooling rack (4° C.) on the liquid handler.
The assay may becarried out at room temperature using Freedom liquid handler connected with a Genios Pro microplate reader. Each sample is measured in duplicate. Each sample stock solution is prediluted with DMSO in a ratio of 1:5 in a polypropylen 96-well plate. From this predilution 10 serial (1:2) dilutions in DMSO are prepared. 13.5 μl of the 11 DMSO dilutions and DMSO alone are transferred to the measurement microplate (duplicates) and 86.5 μl water, 100 μl HEPES buffer and 50 μl substrate solution are added to each well. The enzymatic reaction is started by addition of 20 μl enzyme solution to each well, and then the microplate is immediately transferred to the microplate reader.
After short mixing (20 s) the release of 4-Nitroanilin (pNA) is monitored at 405 nm for 30 cycles (approx. 18 min).
Post assay calculations are done by the Magellan (Tecan) and Graphit Software. The linear slopes are calculated for each well and averaged for the duplicates. The residue activities are calculated in relation to a sample containing only solvent instead of inhibitor and expressed in %. Residue activities are plotted against the log of inhibitor concentrations and IC50 is calculated by an 4-parameter fitting ranging from 0 to 100%.
Turning to `CCn1cnc(-c2ccc(Cl)cc2Cl)c1CN` [122b, C-[5-(2,4-Dichloro-phenyl)-3-ethyl-3H-imidazol-4-yl]-methylamine], the IC50 was 46 µM.
Same read-out and setting: then `NCc1c(-c2ccc(Cl)cc2Cl)ncn1CCNC1CCCCC1` [4b, {2-[5-Aminomethyl-4-(2,4-dichloro-phenyl)-imidazol-1-yl]-ethyl}-cyclohexyl-amine], with 10 µM; and `NCCCc1c(-c2ccc(Cl)cc2Cl)ncn1CCc1c[nH]c2cc(Cl)ccc12` [105b, 3-[3-[2-(6-Chloro-1H-indol-3-yl)-ethyl]-5-(2,4-dichloro-phenyl)-3H-imidazol-4-yl]-propylamine], with 37.9 µM; and `NCc1c(-c2ccc(Cl)cc2Cl)ncn1CCc1ccc(Br)cc1` [49b, C-[3-[2-(4-Bromo-phenyl)-ethyl]-5-(2,4-dichloro-phenyl)-3H-imidazol-4-yl]-methylamine], with 9.1 µM.
On the same count and under the same terms, then `NCc1c(-c2ccc(Cl)cc2Cl)ncn1CCc1ccc(Cl)cc1Cl` [Example 32b, C-{5-(2,4-dichloro-phenyl)-3-[2-(2,4-dichloro-phenyl)-ethyl]-3H-imidazol-4-yl}-methylamine], with 15.4 µM; and `NCc1c(-c2ccc(Cl)cc2Cl)ncn1CCc1c[nH]c2cc(F)ccc12` [114b, C-{5-(2,4-Dichloro-phenyl)-3-[2-(6-fluoro-1H-indol-3-yl)-ethyl]-3H-imidazol-4-yl}-methylamine], with 3.7 µM; and `NCc1c(-c2ccc(Cl)cc2Cl)ncn1CCN1CCCC1` [26b, C-[5-(2,4-Dichloro-phenyl)-3-(2-pyrrolidin-1-yl-ethyl)-3H-imidazol-4-yl]-methylamine], with 40.6 µM.
The same measure, in the same setting: the figure for `CC(N)c1c(-c2ccc(Cl)cc2Cl)ncn1CCc1cccc(Cl)c1` (stereo not drawn) [64b, 1-[3-[2-(3-Chloro-phenyl)-ethyl]-5-(2,4-dichloro-phenyl)-3H-imidazol-4-yl]-ethylamine] is 28.9 µM; for `NCc1c(-c2ccc(Cl)cc2Cl)ncn1Cc1ccccc1C(F)(F)F` [108b, C-[5-(2,4-Dichloro-phenyl)-3-(2-trifluoromethyl-benzyl)-3H-imidazol-4-yl]-methylamine] it is 5.5 µM.
As for `CCCCCCn1cnc(-c2ccc(Cl)cc2Cl)c1CN` [84b, C-[5-(2,4-Dichloro-phenyl)-3-hexyl-3H-imidazol-4-yl]-methylamine], the IC50 came to 1 µM.
The same measure, in the same setting: then `CC(N)c1c(-c2ccc(Cl)cc2Cl)ncn1CCCc1ccccc1` (stereo not drawn) [70b, 1-[5-(2,4-Dichloro-phenyl)-3-(3-phenyl-propyl)-3H-imidazol-4-yl]-ethylamine], with 41.5 µM.
Still for that read-out and setting: then `C[C@H](N)c1c(-c2ccc(Cl)cc2Cl)ncn1CCc1c[nH]c2cc(Cl)ccc12` [101b, (S)-1-[3-[2-(6-Chloro-1H-indol-3-yl)-ethyl]-5-(2,4-dichloro-phenyl)-3H-imidazol-4-yl]-ethylamine], with 47.8 µM; and `CC(O)Cn1cnc(-c2ccc(Cl)cc2Cl)c1CN` (stereo not drawn) [72b, 1-[5-Aminomethyl-4-(2,4-dichloro-phenyl)-imidazol-1-yl]-propan-2-ol], with 20.8 µM.
On the same count and under the same terms, then `CC(N)c1c(-c2ccc(Cl)cc2Cl)ncn1CCN1CCOCC1` (stereo not drawn) [118b, 1-[5-(2,4-Dichloro-phenyl)-3-(2-morpholin-4-yl-ethyl)-3H-imidazol-4-yl]-ethylamine], with 49.6 µM.
Regarding `NCc1c(-c2ccc(Cl)cc2Cl)ncn1CCCc1ccccc1` [91b, C-[5-(2,4-Dichloro-phenyl)-3-(3-phenyl-propyl)-3H-imidazol-4-yl]-methylamine], the IC50 amounted to 12.7 µM.
On the same count and under the same terms, the figure for `Cc1ccc(Cn2cnc(-c3ccc(Cl)cc3Cl)c2C(C)N)cc1` (stereo not drawn) [116b, 1-[5-(2,4-Dichloro-phenyl)-3-(4-methyl-benzyl)-3H-imidazol-4-yl]-ethylamine] is 23.5 µM; for `COc1ccc(Cn2cnc(-c3ccc(Cl)cc3Cl)c2CN)cc1` [35b, C-[5-(2,4-Dichloro-phenyl)-3-(4-methoxy-benzyl)-3H-imidazol-4-yl]-methylamine] it is 11.8 µM; for `CC(C)CCCCCCn1cnc(-c2ccc(Cl)cc2Cl)c1CN` [99b, C-[5-(2,4-Dichloro-phenyl)-3-(7-methyl-octyl)-3H-imidazol-4-yl]-methylamine] it is 4.6 µM.
Still for that read-out and setting: then `NCc1c(-c2ccc(Cl)cc2Cl)ncn1CC1CCCO1` (stereo not drawn) [Example 17b, C-[5-(2,4-dichloro-phenyl)-3-(tetrahydro-furan-2-ylmethyl)-3H-imidazol-4-yl]-methylamine], with 1.9 µM; and `CC(C)CCn1cnc(-c2ccc(Cl)cc2Cl)c1C(C)N` (stereo not drawn) [44b, 1-[5-(2,4-Dichloro-phenyl)-3-(3-methyl-butyl)-3H-imidazol-4-yl]-ethylamine], with 40.6 µM; and `COc1ccc(Cn2cnc(-c3ccc(Cl)cc3Cl)c2C(C)N)cc1` (stereo not drawn) [43b, 1-[5-(2,4-Dichloro-phenyl)-3-(4-methoxy-benzyl)-3H-imidazol-4-yl]-ethylamine], with 27.1 µM.

Still in this test, the particulars now being: tested directly following parallel synthesis, without purification; read-out: IC50 DP4.
Regarding `Cc1ccccc1Cn1cnc(-c2ccc(F)cc2Cl)c1CN` [Example 14a, C-[5-(2-Chloro-4-fluoro-phenyl)-3-(2-methyl-benzyl)-3H-imid-azol-4-yl]-methyl-amine], the IC50 turned out to be 19.9 µM.
Same read-out and setting: then `NCc1c(-c2ccc(F)cc2Cl)ncn1Cc1ccccc1F` [Example 28a, C-[5-(2-Chloro-4-fluoro-phenyl)-3-(2-fluoro-benzyl)-3H-imid-azol-4-yl]-methyl-amine], with 19 µM; and `NCc1c(-c2ccc(F)cc2Cl)ncn1Cc1ccco1` [Example 2a, C-[5-(2-Chloro-4-fluoro-phenyl)-3-furan-2-yl-methyl-3H-imid-azol-4-yl]-methyl-amine], with 16.3 µM.
Regarding `NCc1c(-c2ccc(F)cc2F)ncn1Cc1ccccc1F` [Example 86a, C-[5-(2,4-Difluoro-phenyl)-3-(2-fluoro-benzyl)-3H-imid-azol-4-yl]-methyl-amine], the IC50 amounted to 32.5 µM.
On the same count and under the same terms, the figure for `CCOc1ccccc1Cn1cnc(-c2ccc(Cl)cc2Cl)c1CN` [Example 50a, C-[5-(2,4-Dichloro-phenyl)-3-(2-ethoxy-benzyl)-3H-imid-azol-4-yl]-methyl-amine] is 0.1 µM; for `NCc1c(-c2ccc(F)cc2Cl)ncn1Cc1ccccc1C(F)(F)F` [Example 19a, C-[5-(2-Chloro-4-fluoro-phenyl)-3-(2-tri-fluorometh-yl-benzyl)-3H-imid-azol-4-yl]-methyl-amine] it is 35.2 µM; for `NCc1c(-c2ccc(F)cc2Cl)ncn1Cc1cccnc1` [Example 31a, C-[5-(2-Chloro-4-fluoro-phenyl)-3-pyri-din-3-ylmethyl-3H-imid-azol-4-yl]-methyl-amine] it is 5.5 µM.
The same measure, in the same setting: the figure for `COc1ccc(-c2ncn(Cc3cc(Br)ccc3F)c2CN)c(C)c1` [Example 71a, C-[3-(5-Bro-mo-2-fluoro-benzyl)-5-(4-meth-oxy-2-methyl-phenyl)-3H-imid-azol-4-yl]-methyl-amine] is 30.7 µM; for `NCc1c(-c2ccc(Cl)cc2Cl)ncn1Cc1ccccn1` [Example 65a, C-[5-(2,4-Dichloro-phenyl)-3-pyri-din-2-yl-methyl-3H-imid-azol-4-yl]-methyl-amine] it is 1.9 µM.
As to `NCc1c(-c2ccc(F)cc2Cl)ncn1Cc1ccc2c(c1)OCO2` [Example 16a, C-[3-Ben-zo[1,3]di-oxol-5-yl-methyl-5-(2-chlo-ro-4-fluoro-phenyl)-3H-imid-azol-4-yl]-methyl-amine], the IC50 came to 28 µM.
Still for that read-out and setting: then `NCc1c(-c2ccc(F)cc2F)ncn1Cc1ccc(F)cc1` [Example 74a, C-[5-(2,4-Difluoro-phenyl)-3-(4-fluoro-benzyl)-3H-imid-azol-4-yl]-methyl-amine], with 44.2 µM; and `Cc1ccc(Cn2cnc(-c3ccc(F)cc3Cl)c2CN)cc1` [Example 24a, C-[5-(2-Chloro-4-fluoro-phenyl)-3-(4-methyl-benzyl)-3H-imid-dazol-4-yl]-methyl-amine], with 43.3 µM; and `Cc1ccc(-c2ncn(Cc3ccsc3)c2CN)c(C)c1` [Example 67a, C-[5-(2,4-Dimethyl-phenyl)-3-thio-phen-3-yl-methyl-3H-imid-azol-4-yl]-methyl-amine], with 42.4 µM.
On the same count and under the same terms, then `NCc1c(-c2ccc(Cl)cc2Cl)ncn1Cc1cccnc1` [Example 66a, C-[5-(2,4-Dichloro-phenyl)-3-pyri-din-3-yl-methyl-3H-imid-azol-4-yl]-methyl-amine], with 0.1 µM; and `NCc1c(-c2ccc(F)cc2F)ncn1Cc1cccc(F)c1` [Example 78a, C-[5-(2,4-Difluoro-phenyl)-3-(3-fluoro-benzyl)-3H-imid-azol-4-yl]-methyl-amine], with 46 µM.
